From the RepoRT retention time repository

Test: Agilent ZORBAX 300 SB-C18, 150 × 1 mm, 3.5 µm; A: water + 0.01% heptafluorobutyric acid; B: acetonitrile + 0.01% heptafluorobutyric acid; gradient (min/%B) 0/0 100/90
Settings: stereoisomer not certain

| LC retention time [min] | SMILES |
| --- | --- |
| 8.86 | CNC(=S)N1CCCCC1 |
| 9.04 | C#CCN(CCCC)CCCC |
| 11.8 | CC1N(CCC(N)=O)c2ccccc2C1(C)C (stereo not given) |
| 8.03 | CN(C)c1nc(N)nc(N(C)C)n1 |
| 7.24 | COC(=O)Cc1ccc(N)cc1N |
| 7.17 | Cn1c(=O)c2n[nH]c(=S)nc2n(C)c1=O |
| 12 | Cc1[nH]c2ccccc2c1C=NN=Cc1c(C)[nH]c2ccccc12 |
| 9.4 | CN(C)CCC(=O)c1ccc2ccccc2c1 |
| 9.08 | c1cncc(-c2cccs2)c1 |
| 6.5 | CC(=O)Nc1ccccn1 |
| 8.89 | COc1ccccc1OCC(=O)N1CCNC1=O |
| 11.2 | O=C(NCCO)C(=O)NC(c1ccccc1)c1ccccc1 |
| 7.49 | Cc1cnc(C)cn1 |
| 20.3 | CN(c1ccccc1)c1ccc(C=C2CCc3ccccc3C2=O)cc1 |
| 5.9 | Cn1c(=O)[nH]c(=O)n(C)c1=O |
| 13.9 | CC(=NNC(=O)CNC(=O)C(c1ccccc1)c1ccccc1)c1ccc(N(C)C)cc1 |
| 6.49 | CN(C)C(=N)N(C)C |
| 8.74 | CC1Cc2ccccc2N1C(=O)CN1CCN(C)CC1 (stereo not given) |
| 8.21 | N=c1c2c3c(sc2ncn1N)CCC3 |

| SMILES | LC retention time [min] |
| --- | --- |
| CCCCCCn1c2ccccc2c2cc(C(=O)O)ccc21 | 17.8 |
